The values below come from patent US10227336B2, “Pyrazole orexin receptor antagonists” (MERCK SHARP & DOHME CORP., priority 2014, dated 2019).

The target of one experiment is human orexin-2 receptor (Homo sapiens (Human), UniProt O43614). The experiment in a line: FLIPR Ca2+ Flux Assay, hOX2R. It is filed as cell-based. The settings on record: CHO cells expressing the human orexin-2 receptor; agonist 70 pM Ala-6,12 orexin-A. The method, then: The utility of the compounds in accordance with the present invention as orexin receptor OX1R and/or OX2R antagonists may be readily determined without undue experimentation by methodology well known in the art, including the “FLIPR Ca^2+ Flux Assay” (Okumura et al., Biochem. Biophys. Res. Comm. 280:976-981, 2001). In a typical experiment the OX1 and OX2 receptor antagonistic activity of the compounds of the present invention was determined in accordance with the following experimental method. For intracellular calcium measurements, Chinese hamster ovary (CHO) cells expressing the rat orexin-1 receptor or the human orexin-2 receptor, are grown in Iscove's modified DMEM containing 2 mM L-glutamine, […], 1% hypoxanthine-thymidine supplement, 100 U/ml penicillin, 100 μg/ml streptomycin and 10% heat-inactivated fetal calf serum (FCS). The cells are seeded at 20,000 cells/well into Becton-Dickinson black 384-well clear bottom sterile plates coated with poly-D-lysine. All reagents were from GIBCO-Invitrogen Corp. The seeded plates are incubated overnight at 37° C. and 5% CO2. Ala-6,12 human orexin-A as the agonist is prepared as a 1 mM stock solution in 1% bovine serum albumin (BSA) and diluted in assay buffer (HBSS containing 20 mM HEPES, 0.1% BSA and 2.5 mM probenecid, pH7.4) for use in the assay at a final concentration of 70 pM. Test compounds are prepared as 10 mM stock solution in DMSO, then diluted in 384-well plates, first in DMSO, then assay buffer. On the day of the assay, cells are washed 3 times with 100 μl assay buffer and then incubated for 60 min (37° C., 5% CO2) in 60 μl assay buffer containing 1 μM Fluo-4AM ester, 0.02% pluronic acid, and 1% BSA. The dye loading solution is then aspirated and cells are washed 3 times with 100 μl assay buffer. 30 μl of that same buffer is left in each well. Within the Fluorescent Imaging Plate Reader (FLIPR, Molecular Devices), test compounds are added to the plate in a volume of 25 μl, incubated for 5 min and finally 25 μl of agonist is added. Fluorescence is measured for each well at 1 second intervals for 5 minutes and the height of each fluorescence peak is compared to the height of the fluorescence peak induced by 70 pM Ala-6,12 orexin-A with buffer in place of antagonist. For each antagonist, IC50 value (the concentration of compound needed to inhibit 50% of the agonist response) is determined. Alternatively, compound potency can be assessed by a radioligand binding assay (described in Bergman et. al. Bioorg. Med. Chem. Lett. 2008, 18, 1425-1430) in which the inhibition constant (Ki) is determined in membranes prepared from CHO cells expressing either the OX1 or OX2 receptor. The intrinsic orexin receptor antagonist activity of a compound which may be used in the present invention may be determined by these assays.
human orexin-2 receptor, sequence (O43614 whole entry): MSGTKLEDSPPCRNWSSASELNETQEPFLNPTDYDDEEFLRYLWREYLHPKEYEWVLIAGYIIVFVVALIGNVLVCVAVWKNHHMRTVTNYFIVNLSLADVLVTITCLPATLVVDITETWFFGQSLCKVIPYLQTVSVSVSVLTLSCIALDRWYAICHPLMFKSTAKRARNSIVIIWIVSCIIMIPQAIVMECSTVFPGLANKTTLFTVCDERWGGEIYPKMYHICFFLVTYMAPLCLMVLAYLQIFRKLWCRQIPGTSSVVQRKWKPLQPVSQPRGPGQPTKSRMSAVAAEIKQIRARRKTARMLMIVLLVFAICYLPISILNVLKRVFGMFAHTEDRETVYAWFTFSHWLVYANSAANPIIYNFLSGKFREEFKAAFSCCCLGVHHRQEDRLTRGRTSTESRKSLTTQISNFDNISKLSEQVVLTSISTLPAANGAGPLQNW
In general terms: Calcium assays in cells follow changes in intracellular calcium, usually with a dye or a luminescent sensor.

For a further experiment, the target named is hOX1R (Homo sapiens, UniProt O43613). The experiment in a line: FLIPR Ca2+ Flux Assay, hOX1R. As to conditions: CHO cells expressing orexin-1 receptor (head: hOX1R; method: rat); agonist 70 pM Ala-6,12 orexin-A. It is filed as cell-based. The protocol: The utility of the compounds in accordance with the present invention as orexin receptor OX1R and/or OX2R antagonists may be readily determined without undue experimentation by methodology well known in the art, including the “FLIPR Ca^2+ Flux Assay” (Okumura et al., Biochem. Biophys. Res. Comm. 280:976-981, 2001). In a typical experiment the OX1 and OX2 receptor antagonistic activity of the compounds of the present invention was determined in accordance with the following experimental method. […] The cells are seeded at 20,000 cells/well into Becton-Dickinson black 384-well clear bottom sterile plates coated with poly-D-lysine. All reagents were from GIBCO-Invitrogen Corp. The seeded plates are incubated overnight at 37° C. and 5% CO2. Ala-6,12 human orexin-A as the agonist is prepared as a 1 mM stock solution in 1% bovine serum albumin (BSA) and diluted in assay buffer (HBSS containing 20 mM HEPES, 0.1% BSA and 2.5 mM probenecid, pH7.4) for use in the assay at a final concentration of 70 pM. Test compounds are prepared as 10 mM stock solution in DMSO, then diluted in 384-well plates, first in DMSO, then assay buffer. On the day of the assay, cells are washed 3 times with 100 μl assay buffer and then incubated for 60 min (37° C., 5% CO2) in 60 μl assay buffer containing 1 μM Fluo-4AM ester, 0.02% pluronic acid, and 1% BSA. The dye loading solution is then aspirated and cells are washed 3 times with 100 μl assay buffer. 30 μl of that same buffer is left in each well. Within the Fluorescent Imaging Plate Reader (FLIPR, Molecular Devices), test compounds are added to the plate in a volume of 25 μl, incubated for 5 min and finally 25 μl of agonist is added. Fluorescence is measured for each well at 1 second intervals for 5 minutes and the height of each fluorescence peak is compared to the height of the fluorescence peak induced by 70 pM Ala-6,12 orexin-A with buffer in place of antagonist. For each antagonist, IC50 value (the concentration of compound needed to inhibit 50% of the agonist response) is determined. Alternatively, compound potency can be assessed by a radioligand binding assay (described in Bergman et. al. Bioorg. Med. Chem. Lett. 2008, 18, 1425-1430) in which the inhibition constant (Ki) is determined in membranes prepared from CHO cells expressing either the OX1 or OX2 receptor. The intrinsic orexin receptor antagonist activity of a compound which may be used in the present invention may be determined by these assays.

For `C[C@@H]1CC[C@@H](c2cnn(C3CC3)c2)CN1C(=O)c1ccccc1-n1nccn1` [Example 11, (2R,5S)-5-(1-Cyclopropyl-1H-pyrazol-4-yl)-2-methyl-1-{[2-(2H-1,2,3-triazol-2-yl)phenyl]carbonyl}piperidine], the IC50 on human orexin-2 receptor is 56 nM; at hOX1R it was > 10000 nM.
For `CC(C)n1cc([C@@H]2CC[C@@H](C)N(C(=O)c3ccccc3-n3nccn3)C2)cn1` [Example 2, (2R,5S)-2-methyl-5-[1-(1-methylethyl)-1H-pyrazol-4-yl]-1-1{[2-(2H-1,2,3-triazol-2-yl)phenyl]carbonyl}piperidine] the same measures were 34 nM and 3410 nM.
Consider `C[C@@H]1CC[C@@H](c2cnn(CC3CC3)c2)CN1C(=O)c1ccccc1-n1nccn1` [Example 3, (2R,5S)-5-[1-(cyclopropylmethyl)-1H-pyrazol-4-yl]-2-methyl-1-{[2-(2H-1,2,3-triazol-2-yl)phenyl]carbonyl}piperidine], for which the values for the IC50 on human orexin-2 receptor and on hOX1R were 124 nM and 7710 nM, respectively.
In the same order, the values of `CC(C)n1cc([C@@H]2CC[C@@H](C)N(C(=O)c3ccsc3-n3nccn3)C2)cn1` [Example 12, (2R,5S)-2-Methyl-5-[1-(1-methylethyl)-1H-pyrazol-4-yl]-1-{[2-(2H-1,2,3-triazol-2-yl)thiophen-3-yl]carbonyl}piperidine] are 301 nM and > 10000 nM.
In the same order, the values of `CC(C)n1cc([C@@H]2CC[C@@H](C)N(C(=O)c3ccc(F)cc3-n3nccn3)C2)cn1` [Example 15, (2R,5S)-1-{[4-fluoro-2-(2H-1,2,3-triazol-2-yl)phenyl]carbonyl}-2-methyl-5-[1-(1-methylethyl)-1H-pyrazol-4-yl]piperidine] are 113 nM and > 10000 nM.
Consider `C[C@@H]1CC[C@@H](c2cnn(C3CCCC3)c2)CN1C(=O)c1ccccc1-n1nccn1` [Example 4, (2R,5S)-5-(1-cyclopentyl-1H-pyrazol-4-yl)-2-methyl-1-{[2-(2H-1,2,3-triazol-2-yl)phenyl]carbonyl}piperidine], for which the IC50 at human orexin-2 receptor amounted to 39 nM; on hOX1R, 1430 nM.
In the same order, the values of `COC(=O)C(C)(C)n1cc([C@@H]2CC[C@@H](C)N(C(=O)c3ccccc3-n3nccn3)C2)cn1` [Example 7, methyl 2-methyl-2-{4-[(3S,6R)-6-methyl-1-{[2-(2H-1,2,3-triazol-2-yl)phenyl]carbonyl}piperidin-3-yl]-1H-pyrazol-1-yl}propanoate] are 46 nM and 3050 nM.
Take `CC(C)n1cc([C@@H]2CC[C@@H](C)N(C(=O)c3ccccc3-n3ncnn3)C2)cn1` [Example 16, (2R,5S)-2-methyl-5-[1-(1-methylethyl)-1H-pyrazol-4-yl]-1-{[2-(2H-tetrazol-2-yl)phenyl]carbonyl}piperidine]: the IC50 at human orexin-2 receptor was 259 nM; at hOX1R, > 10000 nM.
In the same order, the values of `C[C@@H]1CC[C@@H](c2cnn(CC(F)F)c2)CN1C(=O)c1ccccc1-n1nccn1` [Example 6, (2R,5S)-5-[1-(2,2-difluoroethyl)-1H-pyrazol-4-yl]-2-methyl-1-{[2-(2H-1,2,3-triazol-2-yl)phenyl]carbonyl}piperidine] are 183 nM and > 10000 nM.
For `C[C@@H]1CC[C@@H](c2cnn(C3CCC3)c2)CN1C(=O)c1ccccc1-n1nccn1` [Example 8, (2R,5S)-5-(1-cyclobutyl-1H-pyrazol-4-yl)-2-methyl-1-{[2-(2H-1,2,3-triazol-2-yl)phenyl]carbonyl}piperidine] the same measures were 49 nM and 3440 nM.
In the same order, the values of `CC(C)n1cc([C@@H]2CC[C@@H](C)N(C(=O)c3cscc3-n3nccn3)C2)cn1` [Example 14, (2R,5S)-2-methyl-5-[1-(1-methylethyl)-1H-pyrazol-4-yl]-1-{[4-(2H-1,2,3-triazol-2-yl)thiophen-3-yl]carbonyl}piperidine] are 430 nM and > 10000 nM.
With `C[C@@H]1CC[C@@H](c2cnn(CC(C)(C)O)c2)CN1C(=O)c1ccccc1-n1nccn1` [Example 10, 2-Methyl-1-{4-[(3S,6R)-6-methyl-1-{[2-(2H-1,2,3-triazol-2-yl)phenyl]carbonyl}piperidin-3-yl]-1H-pyrazol-1-yl}propan-2-ol], the IC50 at human orexin-2 receptor is 197 nM; on hOX1R it was > 10000 nM.
For `C[C@@H]1CC[C@@H](c2cnn(CC(F)(F)F)c2)CN1C(=O)c1ccccc1-n1nccn1` [Example 5, (2R,5S)-2-methyl-1-{[2-(2H-1,2,3-triazol-2-yl)phenyl]carbonyl}-5-[1-(2,2,2-trifluoroethyl)-1H-pyrazol-4-yl]piperidine] the same measures were 75 nM and > 10000 nM.
In the same order, the values of `C[C@@H]1CC[C@@H](c2cnn(C3CCOC3)c2)CN1C(=O)c1ccccc1-n1nccn1` (stereo partly drawn) [Example 9, (2R,5S)-2-methyl-5-[1-(tetrahydrofuran-3-yl)-1H-pyrazol-4-yl]-1-{[2-(2H-1,2,3-triazol-2-yl)phenyl]carbonyl}piperidine] are 600 nM and > 10000 nM.
For `CC(C)n1cc([C@@H]2CC[C@@H](C)N(C(=O)c3ccsc3-c3ncccn3)C2)cn1` [Example 13, 2[3-({(2R,5S)-2-methy1-5-[1-(1-methylethyl)-1H-pyrazol-4-yl]piperidin-1-yl}carbonyl)thiophen-2-yl]pyrimidine] the same measures were 155 nM and > 10000 nM.
Take `CCn1cc([C@@H]2CC[C@@H](C)N(C(=O)c3ccccc3-n3nccn3)C2)cn1` [Example 1, (2R,5S)-5-(1-Ethyl-1H-pyrazol-4-yl)-2-methyl-1-{[2-(2H-1,2,3-triazol-2-yl)phenyl]carbonyl}piperidine]: the values for the IC50 on human orexin-2 receptor and at hOX1R were 139 nM and > 10000 nM, respectively.

Usually IC50 stands for the concentration that gives 50% inhibition.
